For 24 molecules, inhibition and CC50 results are on record in patent US11524010B2, “Substituted quinazoline sulfonamides as thioredoxin interacting protein (TXNIP) inhibitors” (SOUTHERN RESEARCH INSTITUTE, priority 2017, dated 2022).

Data set [1] has as its system TXNIP. Kind of data set: Inhibition of glucose-induced endogenous TXNIP expression in INS-1 cells (qRT-PCR). In kind it is cell-based, Rat. Conditions: Rattus norvegicus, INS1, 24 h, 25 mM glucose; for inhibition at 1.5 µM: 1.5 μM compound; for inhibition at 12.5 µM: 12.5 μM compound. The method, then:
The Rat INS-1 cell line was obtained from UAB and maintained in RPMI-1640 (Invitrogen #11875) supplemented with 10% fetal bovine serum (FBS), 100 U/ml penicillin and […] streptomycin, 10 mM HEPES, 1 mM Sodium Pyruvate, 50 μM 2-Mercaptoethanol, and 11.1 mM Glucose in a humidified incubator with a 5% C02 atmosphere at 37° C. 4×10^4 cells per well were seeded to 96-well plate and incubated at 37° C. overnight. A subset of the cells were then cultured in medium with 5 mM Glucose for 24 hrs and then treated in medium with 25 mM glucose with or without compounds to be tested for another 24 hrs.
For the primary high throughput screening (HTS) assay, stably transfected, monoclonal INS-1 cells were split using Trypsin (2 ml per T75 flask) and seeded at a density of 10^4/well in a 384-well plate and incubated overnight at low, 5 mM glucose. The next day, the medium was changed to high glucose (25 mM) or high glucose plus the small molecules to be tested and luciferase assays were performed 24 h later. […] For secondary screens, total RNA was extracted from 96-well cultured cells using RNeasy 96 kit (Qiagen #74181) following the manufacturer's protocol using spin technology. Then a one-step qRT-PCR amplification was performed using QuantiFast SYBR Green RT-PCR kit (Qiagen #204154) and was carried out in a 10 μl reaction which consisted of 2 μl RNA, 0.5 μM each of primers (Rat TXNIP 5′ primer: […] (SEQ ID NO:1) and Rat TXNIP 3′ primer: […] (SEQ ID NO:2); Or Rat 18S rRNA 5′ primer: […] (SEQ ID NO:3) and Rat 18S rRNA 3′ primer: […]) (SEQ ID NO:4), 5 μl 2×SYBR Green Master Mix, 0.1 μl 10× QuantiFast RT Mix. The SYBR Green assay was performed using a LightCycler 480 II (Roche Applied Science) with an initial incubation at 50° C. for 10 min for RT followed by denaturation at 95° C. for 5 min. Forty cycles of amplification were performed using a thermal cycling profile of 95° C. for 10s, 60° C. for 30 s. Subsequently, a melting curve was recorded by holding at 95° C. for 60 s, cooling to 60° C. for 60 s, and then heating at 0.11° C./s up to 95° C. The data was collected and analyzed using the LightCycler 480 Software Release 1.5.0 SP3. The relative amount of TXNIP mRNA was normalized to 18 s rRNA level as a housekeeping gene, and the data was analyzed according to the 2^−ΔΔCT method (1). The transformed data was expressed as % inhibition and compound IC50 calculated by a 4-parameter logistic fit of the data using GraphPad Prism 7.
On the technique in general: Quantitative PCR measures a nucleic acid by following its amplification.

The nature of data set [2]: INS-1 cell viability (Cell Titer-Glo, ATP). Format: cell-based, Rat. Conditions: rat, INS-1 cells, 72 hrs treatment. The method, then:
INS-1 cell viability was determined based on quantification of ATP using Cell Titer-Glo Luminescent Cell Viability Assay kit (Promega #G7572), which indicates the presence of metabolically active cells. Briefly, INS-1 cells were seeded into 96-well plates at a cell density of 4.5×10^4 and 3.5×10^4 cells per well and incubated overnight at 37° C. with 5% CO2. On the following day, cells were treated with compounds for 24 hrs and 72 hrs respectively. Cell Titer-Glo reagent was added to the cells and Luminescence was acquired on Synergy 4 Reader ([…]).

With `NC(=O)c1cc2ncnc(N3CCCC(CNS(=O)(=O)C4CC4)C3)c2cc1F` (stereo not drawn) [Compound 59, 4-(3-(cyclopropanesulfonamidomethyl)piperidin-1-yl)-6-fluoroquinazoline-7-carboxamide], in data set [1], at 1.5 µM the inhibition was 5% and 12.5 µM produced 5% inhibition. The CC50 – broadly, the concentration that lowers cell viability or growth by half – at 72 h in data set [2] is > 100 µM.
In the case of `CS(=O)(=O)NCC1CCCN(c2nc(-c3ccccc3)nc3ccccc23)C1` (stereo not drawn) [Compound 9, N-((1-(2-phenylquinazolin-4-yl)piperidin-3-yl)methyl)methanesulfonamide], in data set [1], the inhibition (commonly the drop in the measured response relative to a control, in per cent) at 1.5 µM was found to be 0% and testing at 12.5 µM gave an inhibition of 10%. Also, the half-maximal cytotoxic concentration (CC50) at 72 h in data set [2] came to 71 µM.
Consider `CS(=O)(=O)NCC1CCCN(c2ncnc3ccc(-c4ncco4)cc23)C1` (stereo not drawn) [Compound 26, N-((1-(6-(oxazol-2-yl)quinazolin-4-yl)piperidin-3-yl)methyl)methanesulfonamide], for which, in data set [1], the inhibition at 1.5 µM stood at 2% and the inhibition at 12.5 µM was found to be 28%. In addition, the cytotoxic concentration (CC50) at 72 h in data set [2] is > 100 µM.
In data set [1], `CS(=O)(=O)NCC1CCCN(c2nc(N3CCOCC3)nc3ccccc23)C1` (stereo not drawn) [Compound 17, N-((1-(2-morpholinoquinazolin-4-yl)piperidin-3-yl)methyl)methanesulfonamide] gave an inhibition at 1.5 µM of 0% and an inhibition at 12.5 µM of 15%. The cytotoxic concentration (CC50) at 72 h in data set [2] is > 100 µM.
In data set [1], `CS(=O)(=O)NCC1CCCN(c2ncnc3c(Cl)cc(F)cc23)C1` (stereo not drawn) [Compound 10, N-((1-(8-chloro-6-fluoroquinazolin-4-yl)piperidin-3-yl)methyl)methanesulfonamide] came in with an inhibition at 1.5 µM of 23% and an inhibition at 12.5 µM of 51%. Besides, the 50% cytotoxic concentration (CC50) at 72 h in data set [2] is > 100 µM.
In data set [1], `CS(=O)(=O)NCC1CCCN(c2ncnc3cc(F)c(C#N)cc23)C1` (stereo not drawn) [Compound 29, N-((1-(6-cyano-7-fluoroquinazolin-4-yl)piperidin-3-yl)methyl)methanesulfonamide] registered an inhibition at 1.5 µM of 39% and an inhibition at 12.5 µM of 66%. Moreover, in data set [2], the half-maximal cytotoxic concentration (CC50) at 72 h was > 100 µM.
In data set [1], `CC(C)c1nc(N2CCCC(CNS(C)(=O)=O)C2)c2ccccc2n1` (stereo not drawn) [Compound 15, N-((1-(2-isopropylquinazolin-4-yl)piperidin-3-yl)methyl)methanesulfonamide] came in with an inhibition at 1.5 µM of 0% and an inhibition at 12.5 µM of 20%. Also, in data set [2], the CC50 at 72 h was 73 µM.
For `CS(=O)(=O)NCC1CCCN(c2ncnc3ccc(F)cc23)C1` (stereo not drawn) [Compound 1, N-((1-(6-fluoroquinazolin-4-yl)piperidin-3-yl)methyl)methanesulfonamide] the same measures were 44%, 54% and > 100 µM.
Take `CS(=O)(=O)NC1CCCN(c2ncnc3ccc(F)cc23)C1` (stereo not drawn) [Compound 34, N-(1-(6-fluoroquinazolin-4-yl)piperidin-3-yl)methanesulfonamide]: in data set [1], at 1.5 µM the inhibition was 56% and the inhibition at 12.5 µM was found to be 61%. Further, the CC50 at 72 h in data set [2] is 33 µM.
For `CS(=O)(=O)NCC1CCN(c2ncnc3ccc(F)cc23)CC1` [Compound 44, N-((1-(6-fluoroquinazolin-4-yl)piperidin-4-yl)methyl)methanesulfonamide] the same measures were 4%, 22% and > 100 µM.
In data set [1], `CS(=O)(=O)NCC1CCCN(c2ncnc3cccc(F)c23)C1` (stereo not drawn) [Compound 2, N-((1-(5-fluoroquinazolin-4-yl)piperidin-3-yl)methyl)methanesulfonamide] came in with an inhibition at 1.5 µM of 13% and an inhibition at 12.5 µM of 61%. In data set [2], the CC50 at 72 h is > 100 µM.
Take `CS(=O)(=O)NC1CCCN(c2ncnc3cc(F)c(C(F)(F)F)cc23)C1` (stereo not drawn) [Compound 39, N-(1-(7-fluoro-6-(trifluoromethyl)quinazolin-4-yl)piperidin-3-yl)methanesulfonamide]: in data set [1], the inhibition at 1.5 µM turned out to be 7% and the inhibition at 12.5 µM was determined as 28%. The cytotoxic concentration (CC50) at 72 h in data set [2] was > 100 µM.
For `CS(=O)(=O)NCC1CCCN(c2ncnc3ccc(C(=O)O)cc23)C1` (stereo not drawn) [Compound 19, 4-(3-(methylsulfonamidomethyl)piperidin-1-yl)quinazoline-6-carboxylic acid] the same measures were 0%, 5% and > 100 µM.
In data set [1], `CS(=O)(=O)NC1CCCN(c2ncnc3cc(F)c(F)cc23)C1` (stereo not drawn) [Compound 33, N-(1-(6,7-difluoroquinazolin-4-yl)piperidin-3-yl)methanesulfonamide] gave an inhibition at 1.5 µM of 29% and an inhibition at 12.5 µM of 68%. Further, the CC50 at 72 h in data set [2] turned out to be 68 µM.
The like results for `CS(=O)(=O)NCC1CCCN(c2ncnc3ccc(N4CCOCC4)cc23)C1` (stereo not drawn) [Compound 24, N-((1-(6-morpholinoquinazolin-4-yl)piperidin-3-yl)methyl)methanesulfonamide] were, in that order, 20%, 20% and > 100 µM.
With `CS(=O)(=O)NC1CCCN(c2ncnc3cc(F)c(C#N)cc23)C1` (stereo not drawn) [Compound 37, N-(1-(6-cyano-7-fluoroquinazolin-4-yl)piperidin-3-yl)methanesulfonamide], in data set [1], the inhibition at 1.5 µM came to 0% and the inhibition at 12.5 µM was 24%. The 50% cytotoxic concentration (CC50) at 72 h in data set [2] was > 100 µM.
The like results for `COc1ccc2ncnc(N3CCCC(CNS(C)(=O)=O)C3)c2c1` (stereo not drawn) [Compound 5, N-((1-(6-methoxyquinazolin-4-yl)piperidin-3-yl)methyl)methanesulfonamide] were, in that order, 30%, 58% and > 100 µM.
In data set [1], `CS(=O)(=O)NCC1CCCN(c2ncnc3cc(C(=O)O)ccc23)C1` (stereo not drawn) [Compound 18, 4-(3-(methylsulfonamidomethyl)piperidin-1-yl)quinazoline-7-carboxylic acid] had an inhibition at 1.5 µM of 10% and an inhibition at 12.5 µM of 10%. Further, in data set [2], the CC50 at 72 h is > 100 µM.
Consider `O=S(=O)(NCC1CCCN(c2ncnc3ccc(C(F)(F)F)cc23)C1)C1CCCCC1` (stereo not drawn) [Compound 55, N-((1-(6-(trifluoromethyl)quinazolin-4-yl)piperidin-3-yl)methyl)cyclohexanesulfonamide], for which, in data set [1], the inhibition at 1.5 µM was found to be 29% and at 12.5 µM the inhibition was 41%. For the same molecule, the CC50 at 72 h in data set [2] worked out at 7 µM.
The like results for `CS(=O)(=O)NC1CCCN(c2ncnc3ccccc23)C1` (stereo not drawn) [Compound 31, N-(1-(quinazolin-4-yl)piperidin-3-yl)methanesulfonamide] were, in that order, 17%, 82% and 67 µM.
The like results for `CS(=O)(=O)NCC1CCCN(c2ncnc3cc(F)ccc23)C1` (stereo not drawn) [Compound 4, N-((1-(7-fluoroquinazolin-4-yl)piperidin-3-yl)methyl)methanesulfonamide] were, in that order, 24%, 16% and > 100 µM.
For `CS(=O)(=O)NCC1CN(c2ncnc3cc(C(N)=O)c(F)cc23)CCO1` (stereo not drawn) [Compound 47, 6-fluoro-4-(2-(methylsulfonamidomethyl)morpholino)quinazoline-7-carboxamide] the same measures were 5%, 7% and > 100 µM.
For the molecule `CS(=O)(=O)NC1CN(c2ncnc3ccc(F)cc23)C1` [Compound 52], in data set [1], the inhibition at 1.5 µM came out at 4% and the inhibition at 12.5 µM is 5%. The half-maximal cytotoxic concentration (CC50) at 72 h in data set [2] was > 100 µM.
For `CS(=O)(=O)NCC1(F)CCCN(c2ncnc3cc(F)c(C#N)cc23)C1` (stereo not drawn) [Compound 50, N-((1-(6-cyano-7-fluoroquinazolin-4-yl)-3-fluoropiperidin-3-yl)methyl)methanesulfonamide] the same measures were 2%, 18% and > 100 µM.
